Laboratory results from ChEMBL document CHEMBL4414628, “Engineering Fluorine into Verticillins (Epipolythiodioxopiperazine Alkaloids) via Precursor-Directed Biosynthesis” (J Nat Prod, 2019).

How the values were obtained:
MDA-MB-231 = assay: Antiproliferative activity against human MDA-MB-231 cells assessed as inhibition of cell growth incubated for 72 hrs by CellTiter 96 aqueous one solution assay; assay type: functional, cell-based; settings: MDA-MB-231, 72 h
MDA-MB-435 = assay: Antiproliferative activity against human MDA-MB-435 cells assessed as inhibition of cell growth incubated for 72 hrs by CellTiter 96 aqueous one solution assay; assay type: functional, cell-based; settings: MDA-MB-435, 72 h
OVCAR-3 = assay: Antiproliferative activity against human OVCAR3 cells assessed as inhibition of cell growth incubated for 72 hrs by CellTiter 96 aqueous one solution assay; assay type: functional, cell-based; settings: OVCAR-3, 72 h
[1] = biological target: Histone-lysine N-methyltransferase 2A (Homo sapiens, UniProt Q03164); assay: Inhibition of human recombinant MLL1 using [3H]S-adenosyl-methionine as substrate
Histone-lysine N-methyltransferase 2A, sequence (Q03164 1-2718 limits assumed): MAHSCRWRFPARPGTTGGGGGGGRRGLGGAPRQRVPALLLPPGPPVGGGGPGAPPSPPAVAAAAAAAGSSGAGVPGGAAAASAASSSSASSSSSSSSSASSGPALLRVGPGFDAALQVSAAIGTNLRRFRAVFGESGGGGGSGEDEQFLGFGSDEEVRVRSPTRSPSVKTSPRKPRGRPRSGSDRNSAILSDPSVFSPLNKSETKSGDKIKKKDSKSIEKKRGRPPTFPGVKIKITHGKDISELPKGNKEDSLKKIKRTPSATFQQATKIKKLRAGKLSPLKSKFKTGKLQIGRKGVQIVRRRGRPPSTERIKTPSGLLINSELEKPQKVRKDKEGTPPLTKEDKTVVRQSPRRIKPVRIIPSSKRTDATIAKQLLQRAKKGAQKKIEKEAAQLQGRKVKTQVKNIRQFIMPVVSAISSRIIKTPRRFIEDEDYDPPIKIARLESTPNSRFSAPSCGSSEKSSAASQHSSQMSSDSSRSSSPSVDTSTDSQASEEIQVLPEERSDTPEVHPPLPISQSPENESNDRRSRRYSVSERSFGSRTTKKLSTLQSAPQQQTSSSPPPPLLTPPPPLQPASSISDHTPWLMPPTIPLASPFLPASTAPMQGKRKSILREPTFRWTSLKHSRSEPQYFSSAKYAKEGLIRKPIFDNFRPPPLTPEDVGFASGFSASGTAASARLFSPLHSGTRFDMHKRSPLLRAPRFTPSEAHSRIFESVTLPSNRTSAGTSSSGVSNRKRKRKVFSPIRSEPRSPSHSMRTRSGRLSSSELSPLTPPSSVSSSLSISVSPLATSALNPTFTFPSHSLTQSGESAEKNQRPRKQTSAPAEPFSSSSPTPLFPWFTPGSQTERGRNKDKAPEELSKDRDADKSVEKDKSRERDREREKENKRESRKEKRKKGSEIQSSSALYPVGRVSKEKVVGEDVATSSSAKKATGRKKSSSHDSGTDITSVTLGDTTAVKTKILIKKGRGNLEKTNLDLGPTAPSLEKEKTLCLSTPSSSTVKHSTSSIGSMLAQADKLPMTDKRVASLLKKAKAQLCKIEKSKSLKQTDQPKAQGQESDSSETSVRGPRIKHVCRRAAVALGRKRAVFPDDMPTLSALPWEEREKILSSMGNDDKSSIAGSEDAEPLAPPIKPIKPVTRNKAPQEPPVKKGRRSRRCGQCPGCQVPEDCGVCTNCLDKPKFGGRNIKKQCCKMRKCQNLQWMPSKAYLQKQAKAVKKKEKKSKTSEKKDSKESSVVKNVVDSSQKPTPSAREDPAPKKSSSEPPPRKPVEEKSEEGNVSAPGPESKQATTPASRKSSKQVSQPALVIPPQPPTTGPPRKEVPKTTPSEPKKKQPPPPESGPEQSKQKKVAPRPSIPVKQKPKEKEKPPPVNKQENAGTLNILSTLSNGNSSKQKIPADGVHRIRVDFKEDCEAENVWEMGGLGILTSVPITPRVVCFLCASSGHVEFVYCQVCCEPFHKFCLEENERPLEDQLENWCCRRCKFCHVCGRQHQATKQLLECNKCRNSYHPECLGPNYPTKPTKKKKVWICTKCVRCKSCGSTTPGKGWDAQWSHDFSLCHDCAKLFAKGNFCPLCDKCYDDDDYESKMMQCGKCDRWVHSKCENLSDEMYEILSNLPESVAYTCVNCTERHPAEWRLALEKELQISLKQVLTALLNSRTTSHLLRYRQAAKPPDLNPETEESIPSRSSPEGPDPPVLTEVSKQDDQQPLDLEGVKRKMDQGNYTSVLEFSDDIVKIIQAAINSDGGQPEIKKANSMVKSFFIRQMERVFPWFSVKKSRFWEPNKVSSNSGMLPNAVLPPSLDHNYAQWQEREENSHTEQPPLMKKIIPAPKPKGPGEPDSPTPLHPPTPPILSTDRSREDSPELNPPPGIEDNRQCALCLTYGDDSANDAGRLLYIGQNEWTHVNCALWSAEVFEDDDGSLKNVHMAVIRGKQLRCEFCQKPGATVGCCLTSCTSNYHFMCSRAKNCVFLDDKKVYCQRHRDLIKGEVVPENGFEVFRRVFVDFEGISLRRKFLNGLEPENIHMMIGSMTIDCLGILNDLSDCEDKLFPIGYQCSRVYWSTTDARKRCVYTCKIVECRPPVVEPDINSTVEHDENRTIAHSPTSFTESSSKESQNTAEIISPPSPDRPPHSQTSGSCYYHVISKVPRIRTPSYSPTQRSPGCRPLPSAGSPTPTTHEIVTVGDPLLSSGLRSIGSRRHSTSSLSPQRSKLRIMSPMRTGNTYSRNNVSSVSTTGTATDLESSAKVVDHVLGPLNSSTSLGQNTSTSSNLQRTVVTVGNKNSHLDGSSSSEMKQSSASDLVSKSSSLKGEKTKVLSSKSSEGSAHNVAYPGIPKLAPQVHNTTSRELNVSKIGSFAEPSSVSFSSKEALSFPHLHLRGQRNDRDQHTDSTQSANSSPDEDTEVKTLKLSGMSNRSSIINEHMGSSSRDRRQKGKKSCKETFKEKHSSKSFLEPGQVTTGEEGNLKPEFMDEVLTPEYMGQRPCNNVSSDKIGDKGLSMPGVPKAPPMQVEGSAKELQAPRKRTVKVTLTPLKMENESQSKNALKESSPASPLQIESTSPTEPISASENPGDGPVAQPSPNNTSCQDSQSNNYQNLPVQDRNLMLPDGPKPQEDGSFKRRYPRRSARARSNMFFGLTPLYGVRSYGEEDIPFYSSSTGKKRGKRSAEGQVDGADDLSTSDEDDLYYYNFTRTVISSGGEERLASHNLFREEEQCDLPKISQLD
Histone-lysine N-methyltransferase 2A, sequence (Q03164 2719-3969 limits assumed): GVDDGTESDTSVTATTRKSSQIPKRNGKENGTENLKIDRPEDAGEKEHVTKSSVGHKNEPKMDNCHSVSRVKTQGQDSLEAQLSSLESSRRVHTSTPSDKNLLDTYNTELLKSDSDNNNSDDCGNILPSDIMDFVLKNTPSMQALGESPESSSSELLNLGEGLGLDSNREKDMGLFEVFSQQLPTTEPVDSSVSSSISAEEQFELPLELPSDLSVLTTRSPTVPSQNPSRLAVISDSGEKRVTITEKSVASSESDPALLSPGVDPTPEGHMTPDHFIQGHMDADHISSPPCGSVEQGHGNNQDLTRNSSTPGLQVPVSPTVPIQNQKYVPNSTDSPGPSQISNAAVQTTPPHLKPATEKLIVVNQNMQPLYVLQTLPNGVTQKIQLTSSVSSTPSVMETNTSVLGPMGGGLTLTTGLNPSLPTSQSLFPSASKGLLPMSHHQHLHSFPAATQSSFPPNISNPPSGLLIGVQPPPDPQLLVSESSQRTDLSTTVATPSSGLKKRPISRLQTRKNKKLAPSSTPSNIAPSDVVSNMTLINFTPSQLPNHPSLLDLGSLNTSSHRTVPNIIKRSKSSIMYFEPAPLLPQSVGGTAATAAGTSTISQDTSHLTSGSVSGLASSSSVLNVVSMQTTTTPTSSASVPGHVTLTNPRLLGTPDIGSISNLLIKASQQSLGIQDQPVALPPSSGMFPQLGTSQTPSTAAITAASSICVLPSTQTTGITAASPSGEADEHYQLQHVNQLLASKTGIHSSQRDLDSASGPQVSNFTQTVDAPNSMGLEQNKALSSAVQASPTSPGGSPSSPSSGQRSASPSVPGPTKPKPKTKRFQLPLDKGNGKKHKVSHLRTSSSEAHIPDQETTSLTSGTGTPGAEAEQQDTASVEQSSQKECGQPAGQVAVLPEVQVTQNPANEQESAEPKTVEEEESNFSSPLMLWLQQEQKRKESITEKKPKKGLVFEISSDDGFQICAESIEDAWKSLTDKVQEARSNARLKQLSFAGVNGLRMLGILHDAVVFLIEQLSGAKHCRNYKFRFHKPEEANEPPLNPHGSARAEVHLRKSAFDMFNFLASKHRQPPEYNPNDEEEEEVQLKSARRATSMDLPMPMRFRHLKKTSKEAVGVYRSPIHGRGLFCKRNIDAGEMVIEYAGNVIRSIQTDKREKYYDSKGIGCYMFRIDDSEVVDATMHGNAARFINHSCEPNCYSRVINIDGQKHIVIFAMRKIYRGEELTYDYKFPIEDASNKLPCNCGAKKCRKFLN

Row | Compound | IC50 (MDA-MB-231) [nM] | IC50 (MDA-MB-435) [nM] | IC50 (OVCAR-3) [nM] | IC50 [1] [nM]
1 | CN1C(=O)[C@]23SS[C@@]1(C)C(=O)N2[C@H]1Nc2ccc(F)cc2[C@@]1([C@@]12c4cc(F)ccc4N[C@@H]1N1C(=O)[C@]4(C)SS[C@]1(C(=O)N4C)[C@H]2O)[C@@H]3O | 59 | 65 | 75 | 
2 | CC[C@@]12SS[C@]3(C(=O)N1C)[C@@H](O)[C@]1([C@@]45c6ccccc6N[C@@H]4N4C(=O)[C@]6(CC)SS[C@]4(C(=O)N6C)[C@H]5O)c4ccccc4N[C@@H]1N3C2=O | 71 | 88 | 100 | 
3 | CC[C@@]12SS[C@]3(C(=O)N1C)[C@@H](O)[C@]1([C@@]45c6ccccc6N[C@@H]4N4C(=O)[C@]6(C)SS[C@]4(C(=O)N6C)[C@H]5O)c4cc(F)ccc4N[C@@H]1N3C2=O | 37 | 39 | 37 | 
4 | CC[C@@]12SS[C@]3(C(=O)N1C)[C@@H](O)[C@]1([C@@]45c6cc(F)ccc6N[C@@H]4N4C(=O)[C@]6(C)SS[C@]4(C(=O)N6C)[C@H]5O)c4cc(F)ccc4N[C@@H]1N3C2=O | 110 | 130 | 180 | 
5 | CC[C@@]12SS[C@]3(C(=O)N1C)[C@@H](O)[C@]1([C@@]45c6ccccc6N[C@@H]4N4C(=O)[C@]6(C)SS[C@]4(C(=O)N6C)[C@H]5O)c4ccccc4N[C@@H]1N3C2=O | 22 | 30 | 30 | 
6 | CC[C@@]12SS[C@]3(C(=O)N1C)[C@@H](O)[C@]1([C@@]45c6cc(F)ccc6N[C@@H]4N4C(=O)[C@]6(C)SS[C@]4(C(=O)N6C)[C@H]5O)c4ccccc4N[C@@H]1N3C2=O | 70 | 72 | 100 | 
7 | CC[C@@]12SS[C@]3(C(=O)N1C)[C@@H](O)[C@]1([C@@]45c6cc(F)ccc6N[C@@H]4N4C(=O)[C@]6(CC)SS[C@]4(C(=O)N6C)[C@H]5O)c4cc(F)ccc4N[C@@H]1N3C2=O | 840 | 830 | 920 | 
8 | CC(=O)O[C@H]1C(=O)[C@@]2(C)[C@H]([C@H](OC(=O)c3ccccc3)[C@]3(O)C[C@H](OC(=O)[C@H](O)[C@@H](NC(=O)c4ccccc4)c4ccccc4)C(C)=C1C3(C)C)[C@]1(OC(C)=O)CO[C@@H]1C[C@@H]2O [PACLITAXEL] | 170 | 0.4 | 5 | 
9 | CN1C(=O)[C@]23SS[C@@]1(C)C(=O)N2[C@H]1Nc2ccccc2[C@@]1([C@@]12c4cc(F)ccc4N[C@@H]1N1C(=O)[C@]4(C)SS[C@]1(C(=O)N4C)[C@H]2O)[C@@H]3O | 230 | 240 | 180 | 
10 | CC[C@@]12SS[C@]3(C(=O)N1C)[C@@H](O)[C@]1([C@@]45c6cc(F)ccc6N[C@@H]4N4C(=O)[C@]6(CC)SS[C@]4(C(=O)N6C)[C@H]5O)c4ccccc4N[C@@H]1N3C2=O | 46 | 49 | 39 | 
11 | CN1C(=O)[C@]23SS[C@@]1(C)C(=O)N2[C@H]1Nc2ccccc2[C@@]1([C@@]12c4ccccc4N[C@@H]1N1C(=O)[C@]4(C)SS[C@]1(C(=O)N4C)[C@H]2O)[C@@H]3O | 43 | 37 | 37 | 800
